Experimental findings from BindingDB's records for doi:10.7270/Q2DF6PMF (Nmmlsc, 2007) are described below.

Where a name gives a salt, the structure may show the parent alone.

A word on the IC50: it is the concentration at which inhibition is half-maximal. The low end stands for inhibition by little substance, the high end for a need for much substance. One may read the Ki as a dissociation constant, usually derived from enzyme kinetics or from competition with a known ligand.

The target of one assay is T1, N-formyl peptide receptor 2 (Homo sapiens, UniProt P25090).
T1 sequence (P25090 whole entry): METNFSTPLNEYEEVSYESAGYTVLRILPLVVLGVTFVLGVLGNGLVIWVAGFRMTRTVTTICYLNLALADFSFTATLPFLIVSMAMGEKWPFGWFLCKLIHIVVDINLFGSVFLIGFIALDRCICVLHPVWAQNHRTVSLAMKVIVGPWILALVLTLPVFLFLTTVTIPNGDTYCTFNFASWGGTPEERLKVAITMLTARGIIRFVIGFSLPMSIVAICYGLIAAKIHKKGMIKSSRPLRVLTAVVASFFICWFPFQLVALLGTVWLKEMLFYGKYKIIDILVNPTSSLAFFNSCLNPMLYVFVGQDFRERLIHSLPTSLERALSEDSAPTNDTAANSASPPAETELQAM
Kind of assay: concentration-dependent FPRL1 ligand displacement – cell-based, FPR counter-screen, fluorescent ligand, dose response (AID 520).
Conditions: not given
On to `O=C1C(=O)N(CC2CCCO2)C(c2cccnc2)C1C(=O)c1ccco1` (centres undefined) [3-(furan-2-carbonyl)-4-hydroxy-1-(oxolan-2-ylmethyl)-2-pyridin-3-yl-2H-pyrrol-5-one], for which the half-maximal inhibitory concentration (IC50) is over 66.7 µM and the Ki was over 40.3 µM.
`CCCCNC(=O)c1sc(=S)n2c1[nH]c(=O)c1ccccc12` [N-butyl-5-oxo-1-thioxo-4,5-dihydro[1,3]thiazolo[3,4-a]quinazoline-3-carboxamide]: the IC50 is over 66.7 µM.
In the case of `CCOc1cccc(C(=O)C2C(=O)C(=O)N(CCOC)C2c2ccc(C)o2)c1` (centres undefined) [(4Z)-4-[(3-ethoxyphenyl)-hydroxymethylidene]-1-(2-methoxyethyl)-5-(5-methyl-2-furanyl)pyrrolidine-2,3-dione], the IC50 was over 66.7 µM and the Ki is over 40.3 µM.
As to `CC1=NC(C)=C(C#N)C(c2ccc3ncccc3c2)C1C#N` (centres undefined), the half-inhibitory concentration (IC50) is over 66.7 µM and the inhibition constant (Ki) was over 40.3 µM.
As to `CCCCn1c(NC(=O)CC)c(C#N)c2nc3ccccc3nc21` [MLS000079918], the IC50 is over 66.7 µM.
On the same count and under the same terms, then `COc1ccc2nc(Nc3nc(C)c(C(C)=O)s3)sc2c1` [1-[2-[(6-methoxy-1,3-benzothiazol-2-yl)amino]-4-methyl-1,3-thiazol-5-yl]ethanone], with over 66.7 µM.
Regarding `CCN(CC)c1ccc(C=NC(C#N)C(=N)C#N)cc1` (centres undefined) [SMR000023871], the IC50 was over 66.7 µM and the Ki is over 40.3 µM.
`COc1ccc(OC)c(C2C(C(=O)c3ccco3)C(=O)C(=O)N2CCCN2CCOCC2)c1` (centres undefined) [2-(2,5-dimethoxyphenyl)-3-(furan-2-carbonyl)-4-hydroxy-1-(3-morpholin-4-ylpropyl)-2H-pyrrol-5-one] registered an IC50 of over 66.7 µM and a Ki of over 40.3 µM.
As for `Cc1[nH]n2c(=O)c3c(nc2c1-c1ccc(Cl)cc1)CCC3` [MLS000034815], the IC50 was over 66.7 µM.
Molecule `O=c1cc(N2CCc3ccccc32)[nH]c(=O)n1Cc1ccc(F)cc1` [MLS000045863] yielded an IC50 of over 66.7 µM.
The same measure, in the same setting: with `Cc1ccc(C)c(-n2c(CNC(=O)c3ccco3)nnc2SCC(=O)N2CCc3ccccc32)c1` [N-[[5-[2-(2,3-dihydroindol-1-yl)-2-oxoethyl]sulfanyl-4-(2,5-dimethylphenyl)-1,2,4-triazol-3-yl]methyl]furan-2-carboxamide] the figure was over 66.7 µM.
Still for that read-out and setting: then `CCC(NC(=O)Nc1cc(OC)c(OC)c(OC)c1)(C(F)(F)F)C(F)(F)F` [1-(3,4,5-trimethoxyphenyl)-3-[1,1,1-tris(fluoranyl)-2-(trifluoromethyl)butan-2-yl]urea], with over 66.7 µM; and `COc1cccc(-c2nc(CS(=O)(=O)CC(=O)NCCC(C)C)c(C)o2)c1` [2-[[2-(3-methoxyphenyl)-5-methyl-1,3-oxazol-4-yl]methylsulfonyl]-N-(3-methylbutyl)acetamide], with over 66.7 µM; and `Cc1[nH]n2c(=O)c3c(nc2c1-c1ccccc1)CCC3` [SMR000082027], with over 66.7 µM.
The molecule `CCN1C(=O)/C(=C2\SC(=S)N(CCCOC)C2=O)c2ccccc21` [(5Z)-5-(1-ethyl-2-keto-indolin-3-ylidene)-3-(3-methoxypropyl)-2-thioxo-thiazolidin-4-one] had a 50% inhibitory concentration (IC50) of over 66.7 µM.
On the same count and under the same terms, with `CCc1c(C)nc2c(C#N)c(C)[nH]n2c1=O` [SMR000013340] the figure was over 66.7 µM; with `COc1ccccc1Oc1c(C)oc2cc(OC(=O)c3ccco3)ccc2c1=O` [2-furancarboxylic acid [3-(2-methoxyphenoxy)-2-methyl-4-oxo-1-benzopyran-7-yl] ester], over 66.7 µM; with `CCC(Sc1nc2c(c(=O)[nH]1)CCC2)C(=O)Nc1cccc(OC)c1` (centres undefined) [SMR000028729], over 66.7 µM.
In turn, `Cc1ccc(C2C(C(=O)c3ccc(Cl)cc3)C(=O)C(=O)N2CC2CCCO2)o1` (centres undefined) [(4Z)-4-[(4-chlorophenyl)-hydroxy-methylene]-5-(5-methyl-2-furyl)-1-(tetrahydrofurfuryl)pyrrolidine-2,3-quinone] gave an IC50 of over 66.7 µM and an inhibitory constant (Ki) of over 40.3 µM.
As to `OCc1nc2ccccc2n1CC(O)Cn1ccc2ccccc21` (centres undefined) [1-[2-(hydroxymethyl)-1-benzimidazolyl]-3-(1-indolyl)-2-propanol], the half-inhibitory concentration (IC50) was over 66.7 µM.
With `O=C(NCc1cccnc1)C1c2ccccc2C(=O)N1C1CCCCCC1` (centres undefined) [2-cycloheptyl-3-keto-N-(3-pyridylmethyl)isoindoline-1-carboxamide], the 50% inhibitory concentration (IC50) was over 66.7 µM.
The same measure, in the same setting: with `COc1ccc2ccccc2c1C1CC(=O)N2CN(C3CCCCC3)CSC2=C1C#N` (centres undefined) [3-cyclohexyl-8-(2-methoxynaphthalen-1-yl)-6-oxo-2,4,7,8-tetrahydropyrido[2,1-b][1,3,5]thiadiazine-9-carbonitrile] the figure was over 66.7 µM.
On to `COc1ccccc1C1C(C(=O)c2ccccc2)C(=O)C(=O)N1CC(C)O` (centres undefined) [(4Z)-4-[hydroxy(phenyl)methylene]-1-(2-hydroxypropyl)-5-(2-methoxyphenyl)pyrrolidine-2,3-quinone], for which the half-inhibitory concentration (IC50) was over 66.7 µM and the inhibition constant (Ki) is over 40.3 µM.
In the case of `COCCN1Cc2cccc(C(=O)NCc3ccc4c(c3)OCO4)c2C1=O` [N-(1,3-benzodioxol-5-ylmethyl)-2-(2-methoxyethyl)-3-oxoisoindoline-4-carboxamide], the half-inhibitory concentration (IC50) was over 66.7 µM.
On the same count and under the same terms, then `COc1cccc2c1C(=O)c1c(O)c3c(c(O)c1C2=O)C[C@@](O)(C(C)=O)C[C@@H]3O[C@H]1C[C@H](N)[C@H](O)[C@H](C)O1` [(7S,9S)-9-acetyl-7-[(2R,4S,5S,6S)-4-amino-5-hydroxy-6-methyloxan-2-yl]oxy-6,9,11-trihydroxy-4-methoxy-8,10-dihydro-7H-tetracene-5,12-dione;hydrochloride], with 25.1 µM.
For the molecule `Cc1ccc(C)c(C(=O)C2C(=O)C(=O)N(CCCn3ccnc3)C2c2ccncc2)c1` (centres undefined) [(4E)-4-[(2,5-dimethylphenyl)-hydroxy-methylene]-1-(3-imidazol-1-ylpropyl)-5-(4-pyridyl)pyrrolidine-2,3-quinone], the half-maximal inhibitory concentration (IC50) is over 66.7 µM and the inhibitory constant (Ki) is over 40.3 µM.
`CCc1nnc(NC(=O)CSc2nnc(-c3cc4ccccc4cc3O)n2CC)s1` [2-[4-Ethyl-5-(3-hydroxy-naphthalen-2-yl)-4H-[1,2,4]triazol-3-ylsulfanyl]-N-(5-ethyl-[1,3,4]thiadiazol-2-yl)-acetamide] returned an IC50 of over 66.7 µM.
Same read-out and setting: with `COc1ccc(OC)c(C(=O)c2nc3c(n2O)CCCCC3)c1` [(2,5-dimethoxyphenyl)-(3-hydroxy-5,6,7,8-tetrahydro-4H-cyclohept[d]imidazol-2-yl)methanone] the figure was over 66.7 µM.
On the same count and under the same terms, then `O=C(O)CC1Oc2ccc(Cl)cc2NC1=O` (centres undefined) [2-(6-chloranyl-3-oxidanylidene-4H-1,4-benzoxazin-2-yl)ethanoic acid], with over 66.7 µM.
The molecule `COc1ccc(OC)c(C2C(C(=O)c3cccs3)C(=O)C(=O)N2c2cc(C)on2)c1` (centres undefined) [2-(2,5-dimethoxyphenyl)-1-(5-methyl-1,2-oxazol-3-yl)-4-oxidanyl-3-thiophen-2-ylcarbonyl-2H-pyrrol-5-one] registered an IC50 of over 66.7 µM and a Ki of over 40.3 µM.
The molecule `COc1ccc(-c2cc(C(F)(F)F)nc(N3CCN(c4ccccc4)CC3)n2)cc1OC` [4-(3,4-dimethoxyphenyl)-2-(4-phenyl-1-piperazinyl)-6-(trifluoromethyl)pyrimidine] showed an IC50 of over 66.7 µM.
On the same count and under the same terms, then `COc1ccc(-c2nc(-c3ccc(NC(=O)c4ccc(Br)o4)cc3)no2)cc1OC` [5-bromanyl-N-[4-[5-(3,4-dimethoxyphenyl)-1,2,4-oxadiazol-3-yl]phenyl]furan-2-carboxamide], with over 66.7 µM.
On the same count and under the same terms, then `CCC(SC1=Nc2ccccc2C2=NC(CC(C)C)C(=O)N12)C(=O)Nc1ccc2c(c1)OCO2` (centres undefined) [N-(1,3-benzodioxol-5-yl)-2-[[2-(2-methylpropyl)-3-oxo-2H-imidazo[1,2-c]quinazolin-5-yl]sulfanyl]butanamide], with over 66.7 µM.
Regarding `CN1C(=O)/C(=C2\SC(=S)N(C(CCC(=O)O)C(=O)O)C2=O)c2ccccc21` (centres undefined) [SMR000054993], the 50% inhibitory concentration (IC50) is over 66.7 µM.
Molecule `COc1ccc(OC)c(C2C(C(=O)c3ccccc3)C(=O)C(=O)N2Cc2ccco2)c1` (centres undefined) [(4Z)-5-(2,5-dimethoxyphenyl)-1-(2-furanylmethyl)-4-[hydroxy(phenyl)methylidene]pyrrolidine-2,3-dione] yielded an IC50 of over 66.7 µM and an inhibitory constant (Ki) of over 40.3 µM.
In the same order, the values of `COCc1cc(C2C(C(=O)c3ccco3)C(=O)C(=O)N2CCOCCO)ccc1O` (centres undefined) [3-(furan-2-carbonyl)-4-hydroxy-1-[2-(2-hydroxyethoxy)ethyl]-2-[4-hydroxy-3-(methoxymethyl)phenyl]-2H-pyrrol-5-one] are over 66.7 µM and over 40.3 µM.
`Cc1ccccc1Nc1cc2ccccc2c(O)n1` [3-[(2-methylphenyl)amino]-2H-isoquinolin-1-one] had an IC50 of over 66.7 µM.
On to `CCCc1nc2ccccc2c2nc(N)nn12` [SMR000073509], for which the concentration for half-maximal inhibition (IC50) is over 66.7 µM.
For the molecule `O=C(Cn1c(=O)oc2ccccc21)N1CCN(c2ccccc2)CC1` [3-[2-keto-2-(4-phenylpiperazino)ethyl]-1,3-benzoxazol-2-one], the IC50 was over 66.7 µM.
On the same count and under the same terms, then `COc1ccc(-c2cc(C(F)(F)F)nc(N3CCN(Cc4ccccc4)CC3)n2)cc1OC` [2-(4-benzylpiperazin-1-yl)-4-(3,4-dimethoxyphenyl)-6-(trifluoromethyl)pyrimidine], with 12.1 µM.
Molecule `C=C(c1ccc(Br)cc1)c1sc(N2CCCC2)nc1O` [(5Z)-5-[1-(4-bromophenyl)ethylidene]-2-(1-pyrrolidinyl)-4-thiazolone] registered an IC50 of over 66.7 µM and a Ki of over 40.3 µM.

Staying with this assay, now noted: inactive by the depositor's call.
In turn, `CCOc1cc(C(=O)NCc2nnc(SCC(=O)OC)n2C)cc(OCC)c1OCC` [2-[[4-methyl-5-[[(3,4,5-triethoxybenzoyl)amino]methyl]-1,2,4-triazol-3-yl]thio]acetic acid methyl ester] yielded a 50% inhibitory concentration (IC50) of 18.5 µM.
